The values that follow come from patent US20220133669A1, “PHARMACEUTICAL COMPOSITIONS COMPRISING 15-HETRE AND METHODS OF USE THEREOF” (DS Biopharma Limited, priority 2020, published 2022).

Series [1] has as its system human islet microtissue. The series can be described thus: 15-HETrE efficacy: human islet microtissue function under glucotoxic conditions. Format: cell-based. The method, then: (§1) The aim of the following study was to determine the effects of 15(S)-HETrE activity on diabetes. This aim was accomplished by (1) identifying a cytotoxic threshold of 15(S)-HETrE in islet microtissues and (2) testing the effects of 15(S)-HETrE on human islet microtissue function under conditions of glucotoxicity and cytokine stress.
(§2) From Days 0-13, an islet microtissue model was established and glucotoxicity pre-test performed. Day 14 marked the start of glucotoxicity assay and 12.5 μM, 25 μM and 50 μM 15(S)-HETrE treatment. From Days 16-19, the culture media was renewed, and the compound (15-HETrE) was re-dosed. Day 12 marked the start of the cytokine stress assay for the 12.5 μM, 25 μM and 50 μM 15(S)-HETrE treatment. On Day, 12 an intermediate assessment of the compound effects was also performed (e.g., Day 7 incubation in glucotoxic conditions). On Day 12, a renewal of the culture media and compound treatment was performed. On Days 23 and 26, a renewal of the culture media and compound treatment was also performed. Lastly, on Day 28, an assessment of the compound effects under glucotoxicity/cytokine stress at the end of 14- and 7-day incubation was performed.

Series [2] concerns human islet microtissue. The series can be described thus: 15-HETrE efficacy: human islet microtissue under cytokine stress. Format: cell-based. The note with it: 50 μM. The method, then: as §1, §2
In series [3] the test system is human islet microtissue. The series can be described thus: Cytotoxicity pretest: chronic insulin secretion (Human Insulin ELISA) of islet microtissues. Type of series: cell-based. As to conditions: 300 μM; after 7 days of treatment. The procedure:
(§3) From Days 0-7, a human islet microtissue was established. On Day 7, 15-HETrE treatment commenced. From Days 9-12, the culture media was renewed and the compound (15-HETrE) was re-dosed. On Day 14, an assessment on islet cell viability was performed—tissues were lysed to measure ATP content using Promega CellTiter-Glo luminescent cell viability assay. On Day 14, an assessment on islet cell function was also performed—conditioned media from the last 48 hours of the experiment was collected to test chronic insulin secretion. And lastly, on Day 14, insulin was quantified—following dilutions in Krebs-Ringer HEPES buffer, chronic insulin secretion was quantified using STELLUX Chemi Human Insulin ELISA assay.
(An ELISA detects its analyte on a solid surface through an enzyme-linked reagent.)

Series [4] relates to human islet microtissue. Briefly: Cytotoxicity pretest: ATP content (CellTiter-Glo cell viability) in islet microtissues. The note with it: after 7 days of treatment. Type of series: cell-based. The procedure: as §3
A general note: Cellular ATP, detected with luciferase, serves as a proxy for viable cell number.

The nature of series [5]: Tissue distribution following oral administration of 15-HETrE. Type of series: in vivo, rats. As to conditions: 500 mg/kg p.o. once daily for 7 days; tissues taken 24 hours after final dose. The procedure:
The objective of this study was to examine distribution of orally administered 15-HETrE. Male CRL:CD rats were obtained from Charles River Laboratories. Upon receipt, animals were allowed to acclimatize for 5 days prior to start of testing, housed under a 12 h light/dark cycle, and provided a pellet diet (RM-1) and water ad libitum. Animals were dosed with 15-HETrE or vehicle (0.5% HPMC in ASTM Type 1 water) p.o. once daily for 7 days. Animals were monitored at 0.25, 0.5, and 1 hour post dose. During the treatment period, individual body weight was measured daily as well as clinical signs of behavior and survival.
24 hours after the final p.o. dose, each animal was killed by anaesthetic overdose with an intraperitoneal injection of pentobarbitone. A blood sample was collected from the descending vena cava. Lungs, heart, liver, kidneys, spleen, colon, and an area of shaved skin were harvested from each animal, rinsed in PBS, dabbed dry, weighed, and snap-frozen by immersion in liquid nitrogen. All tissue samples were stored frozen at −80° C.

On to `CCCCC[C@H](O)/C=C/C=C\C/C=C\CCCCCCC(=O)O` [15(S)-HETrE], for which, in series [1] (25 μM, day 14), the “fold stimulation of insulin secretion” value is recorded as “improved”. In addition, the ATP levels result in series [1] (50 μM) is reported as “significantly decreased”. Further, the chronic insulin secretion result in series [1] (day 7) is on record as “reduced”; in series [1] (day 14) it was “reduced”; in series [3], “significant decrease”. Also, the stimulated insulin secretion result in series [1] (day 7, 50 μM) was “significant decrease”. Besides, the basal insulin secretion result is “dose-dependent decrease” in series [1] (day 7, 12.5, 25 and 50 μM); “dose-dependent decrease” in series [1] (day 14, 12.5, 25 and 50 μM). For the same molecule, the ATP content result in series [2] is “significant decrease”; in series [4] (11.1 μM) it was “significant increase”; in series [4] (300 μM) it was “significant decrease”.

Turning to `CCCCCC(O)/C=C/C=C\C/C=C\CCCCCCC(=O)O` (stereo not drawn) [15-HETrE, 15-hydroxy-eicosa-8(Z),11(Z),13(E)-trienoic acid], the “tissue distribution of 15-HETrE (heart, kidney, liver, spleen, lung, plasma, skin, colon) vs control animals” value in series [5] is “targeted all organs tested, including the skin”.
